From US20220151979A1, “COMPOSITION FOR PREVENTION OR TREATMENT OF CARDIOVASCULAR AND METABOLIC DISEASE COMPRISING NORANHYDROICARITIN” (SEOUL NATIONAL UNIVERSITY HOSPITAL, priority 2019, published 2022)

Columns and labels:
[1] = tested on: atherosclerotic plaque; assay: Gross plaque imaging in PCSK9-injected mouse carotid-ligation arteriosclerosis model; assay type: in vivo; settings: AAV-PCSK9 virus, high-fat diet, 10 μg/g/day, 3 weeks after ligation, vehicle group about 45%
Experimental: By ligation to the carotid artery of 6- to 8-week-old mice, mechanical stress was applied to induce inflammation, thrombosis, oxidative stress, and shear stress, and the function and structure of the external carotid (EC) were changed to prepare an atherosclerosis model (FIG. 13). Specifically, ligation was performed on the left common carotid artery (LCA) after abdominal anesthesia by performing carotid artery ligation on mice fed a high-fat diet for one week. Partial ligation of three branches in the LCA, the external carotid artery (ECA), the internal carotid artery (ICA), and the occipital artery (OA) was performed. At this time, ICA and OA were ligated, and ECA was ligated separately. In mice subjected to ligation, the amount of blood flow to the heart decreased and the direction of blood flow changed, whereby an atherosclerosis model was prepared. Carotid artery ligation was performed one week after injection of AAV-PCSK9 Virus (1×10^11 IFU/mL) and noranhydroicaritin (10 μg/g/day). After 3 weeks of ligation, it was confirmed whether the atherosclerosis model was completed, and gross plaque imaging and immunofluorescence were performed to confirm the arteriosclerosis inhibitory effect of noranhydroicaritin.

[2] = tested on: IL-1B; assay: Immunofluorescence of IL-1B in carotid artery, mouse arteriosclerosis model; assay type: in vivo; settings: 10 μg/g/day
Experimental: (§1) Carotid artery ligation was performed one week after injection of AAV-PCSK9 Virus (1×10^11 IFU/mL) and noranhydroicaritin (10 μg/g/day). After 3 weeks of ligation, it was confirmed whether the atherosclerosis model was completed, and gross plaque imaging and immunofluorescence were performed to confirm the arteriosclerosis inhibitory effect of noranhydroicaritin.
(§2) Furthermore, the arteriosclerosis inhibitory effect of noranhydroicaritin was confirmed using immunofluorescence. Specifically, a mouse carotid artery was obtained and fixed in 4% PFA for one day, and then prepared into a block. As the inflammatory response in blood vessels progresses, the arteriosclerosis worsens, and thus the marker […] of macrophages causing arteriosclerotic inflammatory response and TNF-α, IL-1B, and MCP-1, which are pro-inflammatory cytokines secreted when the inflammatory response occurs, were stained. Staining was performed using the antibody for each of CAP1(1:200), PCSK9(1:100), F4/80(1:100), TNF-α(1:100), […], and MCP-1(1:100), then imaging was performed using a confocal microscope, and […] was evaluated.

[3] = tested on: TNF-α; assay: Immunofluorescence of TNF-α in carotid artery, mouse arteriosclerosis model; assay type: in vivo; settings: 10 μg/g/day
Experimental: as §1, §2

[4] = tested on: HepG2 cells; assay: MTT cell viability of HepG2 cells; assay type: cell-based, human
Experimental: In order to confirm the toxicity of noranhydroicaritin to cells, HepG2 cells (human liver hepatocellular carcinoma) were treated with each of kaempferol and noranhydroicaritin at various concentrations, and the cell viability of HepG2 cells at each concentration was calculated through the MTT screening method.
Specifically, HepG2 cells were suspended in DMEM (Welgene Inc.) medium containing 10% fetal bovine serum at a concentration of 1×10^5 cells/mL, and 100 μL thereof was inoculated into each well of a 96-well plate. After 4 hours, the HepG2 cells in the well plate were treated with each of kaempferol and noranhydroicaritin samples at concentrations of 2.5 μM, 5 μM, 10 μM, and 20 μM. After incubation for 24 hours, 5 μL of MTT (5 mg/mL) was added to the well plate, and the cells were further incubated for 4 hours. Thereafter, the medium was removed, 100 μL of DMSO was added to the well plate, the reaction was conducted, and then the absorbance was measured at 570 nm. As a control, cholesterol synthesis inhibitors atorvastatin (Ato) and rosuvastatin (Ros) were used. The cell viability was calculated according to the following mathematical formula as a value relative to 100% of the value for the negative control treated only with DMSO. The results are illustrated in FIG. 1. […]

[5] = tested on: PCSK9; assay: Immunoblot of PCSK9 in HepG2 cells, noranhydroicaritin and statin singly or in combination; assay type: cell-based, human; settings: treated singly
Experimental: The cells aliquoted by the method of Example 7 were treated with noranhydroicaritin or a statin (atorvastatin or rosuvastatin) singly or with noranhydroicaritin and a statin (atorvastatin or rosuvastatin) simultaneously, and the proteins were extracted. On an SDS-polyacrylamide gel, 30 μg of each protein was electrophoresed, and attached to a membrane, and then protein expression levels were confirmed using the respective antibodies: phospho-AMPK, PCSK9, LDLR, and PPARγ.

[6] = tested on: F/480; assay: Immunofluorescence of macrophage marker F/480 in carotid artery, mouse arteriosclerosis model; assay type: in vivo; settings: 10 μg/g/day
Experimental: as §1, §2

[7] = tested on: HEK293T cells; assay: MTT cell viability of HEK293T cells; assay type: cell-based, human; settings: 20 μM, 24 hours, relative to DMSO negative control
Experimental: In order to confirm the toxicity of noranhydroicaritin to cells, HEK293T (human embryonic kidneys) were treated with noranhydroicaritin at various concentrations, and the cell viability at each concentration of noranhydroicaritin was calculated through the MTT screening method.
Specifically, HEK293T cells were suspended in DMEM (Welgene Inc.) medium containing 10% fetal bovine serum at a concentration of 1×10^5 cells/mL, and 100 μL thereof was inoculated into each well of a 96-well plate. After 4 hours, the HEK293T cells in the well plate were treated with noranhydroicaritin samples at concentrations of 2.5 μM, 5 μM, 10 μM, and 20 μM. After incubation for 24 hours, 5 μL of MTT (5 mg/mL) was added to the well plate, and the cells were further incubated for 4 hours. Thereafter, the medium was removed, 100 μL of DMSO was added to the well plate, the reaction was conducted, and then the absorbance was measured at 570 nm. As a control, cholesterol synthesis inhibitors atorvastatin (Ato) and rosuvastatin (Ros) were used. The cell viability was calculated according to the mathematical formula as a value relative to 100% of the value for the negative control treated only with DMSO. The results are illustrated in FIG. 2.

Question: Which atherosclerotic plaque-formed area [1] does the source give for CC(C)=CCc1c(O)cc(O)c2c(=O)c(O)c(-c3ccc(O)cc3)oc12 [Noranhydroicaritin, noranhydroicaritin] here?
Answer: Its atherosclerotic plaque-formed area is “about 20%”.

Question: And the “expression of IL-1B (immunofluorescence)” value [2]?
Answer: The value was “decreased”.

Question: What about the “expression of TNF-α (immunofluorescence)” value [3] of the same compound?
Answer: Its value is “decreased”.

Question: And the cell viability ([4]; 20 μM, 24 hours, MTT, relative to DMSO negative control)?
Answer: The cell viability was no less than 90%.

Question: What about the “cell viability compared with control” value ([4]; same concentration as atorvastatin or rosuvastatin) of the same compound?
Answer: The value was “higher than the cell viability of the cells treated with atorvastatin or rosuvastatin”.

Question: What about the “quantity of PCSK9 (immunoblot)” value [5] of the same compound?
Answer: Its value is “decreased”.

Question: And the “expression of F/480, a marker of macrophages (immunofluorescence)” value [6]?
Answer: The value was “also decreased”.

Question: What about the cell viability [7] of the same compound?
Answer: Its cell viability is no less than 90%.
